Assay results from patent US12661404B2, “Methods and materials for tissue ablation” (Mayo Foundation for Medical Education and Research, priority 2020, dated 2026).

Columns and labels:
[1] = system: subcutaneous fat tissue; conditions: 25% LATTE mixture subcutaneous
Procedure: Additional experiments were performed on explanted fat tissue obtained from the groin area from pig in a petri dish submersed in saline (FIG. 10).

[2] = system: human blood clot
Procedure: In a separate experiment blood coagulation was induced in uncougulated human. A blood volume of 4 mL citrated blood loaded into a polypropylene tube and mixed with 400 μL of 0.2 M calcium chloride (CaCl2) for 10 seconds. Aliquouts of 100 μL were deposited into multiple wells on a 96 well plate and the remaining blood volume was kept in the tube. Coagulation was initiated by incubating the samples at 37° C. for 10 minutes.

[3] = system: cardiac muscle; conditions: 1 cc with ICG, 1 hour
Procedure: FIGS. 14A-14B. Effect of an ablation agent on pig heart tissue. FIG. 14A. In a living Yorkshire pig weighing 50-55 kg, a syringe connected to a 21 gauge 7 cm needle was guided through the skin into the myocardium using hand-held ultrasound guidance. […] FIG. 14B.
Pig heart tissue septum received 1 cc injection of LATTE mixture with ICG under ultrasound guidance. Cardiac muscle was removed after 1 hour for near-infrared imaging (NIRF) and histology was performed.

[4] = system: human hepatocellular carcinoma (Hep-G2) cells; conditions: Hep-G2, 24 hours incubation, WST-1
Procedure: HepG2 human liver cancer cell line (ATCC CRL10741; American Type Culture Collection, Manassas, VA, USA) were cultured in 75 cm^2 flasks using growth medium consisting of low glucose Dulbecco's Modified Eagle Medium (DMEM, ThermoFisher) and 10% heat-inactivated bovine serum that was supplemented with 100 IU penicillin and 10 μg/mL streptomycin (Thermo Fisher Scientific). […] The anticancer activity of LATTE on HepG2 was determined using WST-1 reagent (2-(4-Iodophenyl)-3-(4-nitrophenyl)-5-(2,4-disulfophenyl)-2H-tetrazolium sodium) assay as an indication of viability/cytotoxicity treatment. WST-1 viability assay is based on the reduction of tetrazolium salt, WST-1 to an insoluble formazan dye by electron transport across the plasma membrane in viable cells that alter the optical density of the media. […] Cell viability was calculated relative to control wells that received the growth medium alone.
All reported values are the means of three replicate experiments with each study having 8 wells per dose level. Plots of the log concentration versus fractional viability for each drug were generated for each study.

[5] = system: patient derived cholangiocarcinoma, pancreas adenocarcinoma cell lines and HepG2 hepatocellular carcinoma cells; conditions: three cell lines, serially diluted 25-0.048% w/v, 24 or 48 hours
Procedure: (§1) To determine synergy and the concentration of a chemotherapy agent such as doxorubicin to co-administer with LATTE, cell culture experiments were performed.
(§2) HepG2 human liver cancer cell line (ATCC CRL10741; American Type Culture Collection, Manassas, VA, USA) were cultured in 75 cm^2 flasks using growth medium consisting of low glucose Dulbecco's Modified Eagle Medium (DMEM, ThermoFisher) and 10% heat-inactivated bovine serum that was supplemented with 100 IU penicillin and 10 μg/mL streptomycin (Thermo Fisher Scientific). […] The anticancer activity of LATTE on HepG2 was determined using WST-1 reagent (2-(4-Iodophenyl)-3-(4-nitrophenyl)-5-(2,4-disulfophenyl)-2H-tetrazolium sodium) assay as an indication of viability/cytotoxicity treatment. WST-1 viability assay is based on the reduction of tetrazolium salt, WST-1 to an […] formazan dye by electron transport across the plasma membrane in viable cells that alter the optical density of the media. […] At the end of the incubation period, the medium was discarded, and the wells were rinsed three times with DPBS solution followed by addition of 100 μL growth medium and 10 μL of freshly prepared WST-1 reagent into each well and then incubated for 2 hours inside the 5% CO2 incubator at 37° C. After the incubation period, the optical percent density was measured using a microplate reader at a wavelength of 450 nm (SpectraMax iD5, Molecular Devices, San Jose, CA). Cell viability was calculated relative to control wells that received the growth medium alone. Viability rate was calculated as follows: Viability (%)=[…].

[6] = system: pancreas ductal adenocarcinoma (Panc-1) cells; conditions: Panc-1, 24 hours incubation, WST-1
Procedure: as §1, §2

[7] = system: Cholangiocarcinoma (SNU-478) cells; conditions: SNU-478, 24 hours incubation, WST-1
Procedure: as §1, §2

[8] = rat, in vivo
Procedure: Next, in vivo experiments in immunocompetent rats bearing the highly malignant orthotropic N1S1 liver tumors were ablated using LATTE. Percutaneous injection of LATTE was performed and assessment also included CT imaging to mimic the clinical scenario. […] These tumors also received high-resolution in vivo micro-CT imaging following intravenous injection of Exitron contrast agent to allow accurate segmentation of the liver tumors (FIG. 1p-q). […] These tumors at two-weeks were also harvested and evaluated by histology.
All procedures were approved by the institutional animal care and use committee and performed according to institutional guidelines. […] N1S1 cells were maintained in suspension in a 75 cm^2 culture flasks at 37° C. in a 5% CO2 humidified chamber. […] To prepare the cells for inoculation, N1S1 cell aliquots were rinsed and suspended in plain IMDM (without antibiotics or serum) to yield 2×10^6 cells in 100 μL of fresh aliquots for each inoculation. The rat liver was surgically exposed through upper midline laparotomy under isoflurane anesthesia followed by subcapsular inoculation of N1S1 cells into the left liver lobe. Gentle compression with gauze for hemostasis was used to prevent cell reflux. The abdominal incision was closed using interrupted Vicryl sutures for abdominal muscle and subcuticular suture for the skin, followed by the application of Vetbond tissue adhesive (3M, St. Paul, MN) followed by recovery from anesthesia. Intratumoral injection of the ionic liquid mixture was performed in three groups of rats bearing 0.5 cm^3 N1S1 tumor lesions measured with ultrasound. […] All solutions contained 0.25 mg/mL indocyanine green (ICG, Sigma-Aldrich, St. Louis, MO) solubilized in normal saline. Following intratumoral injections, treated rats were allowed to survive for 2 weeks after treatment, and tumor volume was documented using ultrasound. N1S1 tumor progression and treatment response was assessed using percutaneous ultrasonography. Selected focal zone depth, gain, and tissue harmonic settings were optimized during the acquisition of the initial imaging at baseline, and the same parameters were applied during acquisition after intratumoral injection of LATTE mixture. Serial ultrasound examinations were performed on rat livers following N1S1 inoculation to confirm tumor formation and assess tumor volume. Rats were anesthetized using a gas mixture of 2-3% isoflurane in 100% oxygen via a nose cone. Rats were secured in a supine position on an electronically controlled warming platform to maintain the temperature at 37° C. during the imaging procedure. The abdominal area was shaved and prepped with depilatory cream (Nair, Church& Dwight Co. INC). Initially, abdominal sonography was performed to delineate tumor mass boundaries in grayscale (B-mode) using ACUSON 52000 system (Siemens Inc., Germany) and a multi-frequency linear transducer (9L4, 9.0 MHz). The transducer was positioned to obtain 2D scans via the subcostal window to document liver tumors and measure lesion diameter. […] Tumor volumes were calculated as following: V=(4/3)×π×(1/2) SI×(1/2)LM×1/2 AP. Color Doppler images were also acquired to detect the distribution of the tumor blood flow weekly.

Substance: choline-geranate [LATTE]
- adipocyte ablation in treated zone (histology) [1]: complete ablation of the adipocytes
- clot dissolution, coagulated blood in multi-wells ([2]; overlayed with LATTE): clot was dissolved
- lysis of blood clot formed in the tube ([2]; petri dish, incubation with LATTE): complete lysis
- cardiac muscle histology at injected site [3]: marked ablation of the cardiac myofibers
- effective dose (EC50), fractional cell viability [4]: 0.19%
- effective concentration that causes 50% cell death (EC50) [5]: 0.18-0.3%
- effective dose (EC50), fractional cell viability [6]: 0.3%
- effective dose (EC50), fractional cell viability [7]: 0.2%
- ALP [8]: *211 ± 29 U/L
- ALT [8]: 57 ± 13 U/L
- BUN [8]: **25 ± 2.4 mg/dL
- CRE [8]: 0.3 ± 0.04 mg/dL
- CRP [8]: 459 ± 38 ng/mL
- GLU [8]: 268 ± 75 mg/dL
- Total Protein [8]: 5.2 ± 0.3 g/dL
- liver and renal function from serum samples [8]: normal liver and renal function
